Assay results published in PubChem BioAssay (NCI).
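In this assay, cells in 96-well plates receive the compound at five concentrations for 48 hours. Endpoints are linearly interpolated between the surrounding concentrations. At the TGI there is no net growth.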

Key:
Assay in all cases: growth of human tumour cells (NCI), 48 h
[1] = tested on: RPMI-8226 leukemia
[2] = tested on: MOLT-4 leukemia
[3] = tested on: NCI-H226 lung
[4] = tested on: OVCAR-5 ovarian
[5] = tested on: SF-295 CNS
[6] = tested on: SR leukemia
[7] = tested on: T-47D breast
[8] = tested on: OVCAR-3 ovarian
[9] = tested on: LOX IMVI melanoma
[10] = tested on: M14 melanoma
[11] = tested on: DU-145 prostate
[12] = tested on: NCI-H460 lung
[13] = tested on: ACHN renal
[14] = tested on: HOP-92 NSCLC
[15] = tested on: MCF7 breast
[16] = tested on: COLO 205 colon
[17] = tested on: SN12C renal
[18] = tested on: TK-10 renal
[19] = tested on: HL-60(TB) leukemia
[20] = tested on: MDA-N
[21] = tested on: KM12 colon
[22] = tested on: SF-268 CNS
[23] = tested on: HCC-2998 colon
[24] = tested on: HT29 colon
[25] = tested on: SF-539 CNS
[26] = tested on: SK-MEL-28 melanoma
[27] = tested on: HCT-15 colon
[28] = tested on: MDA-MB-435
[29] = tested on: SK-MEL-5 melanoma
[30] = tested on: RXF 393 renal
[31] = tested on: UACC-257 melanoma
[32] = tested on: NCI-H522 lung
[33] = tested on: CAKI-1 renal
[34] = tested on: SK-OV-3 ovarian
[35] = tested on: 786-0 renal
[36] = tested on: SW-620 colon
[37] = tested on: UO-31 renal
[38] = tested on: HS 578T breast
[39] = tested on: CCRF-CEM leukemia
[40] = tested on: MALME-3M melanoma
[41] = tested on: NCI-H23 lung
[42] = tested on: SNB-19 CNS
[43] = tested on: A549 NSCLC
[44] = tested on: A498 renal
[45] = tested on: HOP-62 NSCLC
[46] = tested on: HCT-116 colon
[47] = tested on: BT-549 breast
[48] = tested on: U251 CNS
[49] = tested on: SNB-75 CNS
[50] = tested on: NCI/ADR-RES ovarian
[51] = tested on: OVCAR-8 ovarian
[52] = tested on: SK-MEL-2 melanoma
[53] = tested on: PC-3 prostate
[54] = tested on: K-562 leukemia
[55] = tested on: UACC-62 melanoma
[56] = tested on: IGROV1 ovarian
[57] = tested on: MDA-MB-231 breast
[58] = tested on: OVCAR-4 ovarian
[59] = tested on: EKVX NSCLC
[60] = tested on: DMS 114 small cell lung
[61] = tested on: KM20L2 colon
[62] = tested on: LXFL 529 NSCLC
[63] = tested on: XF 498 CNS
[64] = tested on: SNB-78 CNS
[65] = tested on: M19-MEL melanoma
[66] = tested on: DMS 273 small cell lung
[67] = tested on: DLD-1 colon
[68] = tested on: HOP-18 NSCLC

Measured: TGI

O=C1N/C(=N\N=C\c2ccccc2)C(c2ccccc2)O1 (centres undefined)
33.5 µM: [37]
> 100 µM: [1] | [2] | [3] | [4] | [5] | [6] | [7] | [8] | [9] | [10] | [11] | [12] | [13] | [14] | [15] | [16] | [17] | [18] | [19] | [20] | [21] | [22] | [23] | [24] | [25] | [26] | [27] | [28] | [29] | [30] | [31] | [32] | [33] | [34] | [35] | [36] | [38] | [40] | [41] | [42] | [43] | [44] | [45] | [46] | [47] | [48] | [50] | [51] | [52] | [53] | [54] | [55] | [56] | [57] | [58] | [59]
49.4 µM: [39]
0.0124 µM: [49]

O=C(NN1C(=O)C(Cl)C1c1ccccc1O)c1ccccc1O (centres undefined)
70.6 µM: [39]
55.2 µM: [60]
63.8 µM: [37]
57.9 µM: [42]
48.7 µM: [25]
43.3 µM: [19]
> 100 µM: [1] | [2] | [5] | [6] | [8] | [10] | [12] | [14] | [16] | [17] | [18] | [21] | [22] | [24] | [26] | [29] | [30] | [31] | [32] | [34] | [61] | [36] | [40] | [41] | [43] | [45] | [62] | [46] | [48] | [49] | [51] | [52] | [54] | [55] | [56] | [58] | [59]

CCOc1ccccc1N=Nc1ccc2oc(=O)c(C(C)=O)cc2c1
> 100 µM: [63] | [64] | [1] | [2] | [65] | [4] | [5] | [8] | [9] | [60] | [10] | [16] | [17] | [18] | [66] | [19] | [21] | [22] | [23] | [24] | [25] | [26] | [27] | [67] | [29] | [31] | [32] | [33] | [34] | [35] | [61] | [36] | [37] | [39] | [40] | [41] | [42] | [43] | [44] | [45] | [62] | [46] | [48] | [51] | [52] | [54] | [55] | [56] | [58] | [59]
43.2 µM: [49]

O=C1c2ccccc2C(=O)c2cc3c(cc21)CS(=O)C3
43.3 µM: [17]
> 100 µM: [1] | [2] | [65] | [4] | [5] | [8] | [9] | [68] | [60] | [10] | [12] | [13] | [14] | [16] | [18] | [66] | [19] | [21] | [22] | [23] | [24] | [25] | [26] | [67] | [29] | [30] | [31] | [32] | [33] | [34] | [35] | [61] | [36] | [37] | [39] | [40] | [41] | [42] | [43] | [45] | [62] | [48] | [49] | [51] | [52] | [54] | [55] | [56] | [58] | [59]

C[C@H]1CC[P+](Cc2ccccc2)(c2ccccc2)C1 (some centres undefined)
80.2 µM: [31]
> 100 µM: [1] | [2] | [65] | [3] | [4] | [5] | [6] | [8] | [9] | [68] | [60] | [10] | [12] | [13] | [16] | [17] | [18] | [66] | [19] | [21] | [23] | [24] | [25] | [26] | [27] | [67] | [30] | [32] | [34] | [35] | [61] | [36] | [37] | [39] | [40] | [41] | [42] | [43] | [44] | [45] | [62] | [46] | [48] | [49] | [51] | [52] | [54] | [55] | [56] | [58] | [59]
89.9 µM: [29]

CCCn1c2c(c3ccccc3c1=O)C(=O)c1ccccc1-2
39.6 µM: [32]
> 79.6 µM: [45]
> 100 µM: [1] | [2] | [3] | [4] | [5] | [6] | [7] | [8] | [9] | [10] | [11] | [12] | [13] | [14] | [15] | [16] | [17] | [18] | [20] | [21] | [22] | [23] | [24] | [25] | [26] | [27] | [28] | [29] | [30] | [31] | [33] | [34] | [35] | [36] | [37] | [38] | [39] | [40] | [41] | [42] | [43] | [44] | [46] | [47] | [48] | [49] | [50] | [51] | [52] | [53] | [54] | [55] | [56] | [57] | [58] | [59]
7.25 µM: [19]

FC(F)(F)c1ccc(C2ON=C(c3ccccc3)N2C23CC4CC(CC(C4)C2)C3)cc1 (centres undefined)
> 10 µM: [1] | [2] | [3] | [4] | [5] | [6] | [7] | [8] | [9] | [10] | [11] | [12] | [13] | [14] | [15] | [16] | [17] | [18] | [19] | [20] | [21] | [22] | [23] | [24] | [25] | [26] | [27] | [28] | [29] | [30] | [31] | [32] | [33] | [34] | [35] | [36] | [38] | [39] | [40] | [41] | [42] | [43] | [44] | [45] | [46] | [47] | [48] | [49] | [50] | [51] | [52] | [53] | [54] | [55] | [56] | [57] | [58] | [59]
